For orientation: IC50 means the concentration at which inhibition is half-maximal. Usually half-life stands for the time in which the quantity being followed falls by half.

The values below come from US20240308973A1, “PHOSPHODIESTERASE 3 (PDE3) INHIBITORS” (Zoetis Services LLC, priority 2023, published 2024).

Data set [1] has as its target dog PDE3A recombinant enzyme (Canis lupus familiaris, UniProt A0A8I3NYE0). Briefly: cPDE3A assay (fluorescent polarization). It counts as biochemical. The note with it: canine PDE3A, read-out: cPDE3 Inhibition (IC50). The protocol:
cPDE3A Assay (Fluorescent Polarization)
The canine PDE3A assay kit was purchased from BPS Bioscience (San Diego, CA) which included dog PDE3A recombinant enzyme, FAM-cyclic-3′,5′-AMP (20 μM), PDE3 assay buffer, binding agent, binding agent diluent and microtiter 96-well plates. Compounds were initially dissolved in DMSO. The stock concentration was subsequently diluted in cPDE assay buffer (10× stock) and serially diluted to give a concentration response curve starting at 10 μM (≥7 total concentrations). Following the serial dilution, compound solution (0.1% final DMSO) was transferred to an assay plate (96-well) where the remaining canine PDE3A assay reagents were dispensed according to the BPS Bioscience® protocol (catalog #79735) procedure using a final concentration of 5 pg/μL of enzyme. Each compound was evaluated for the inhibition of the canine PDE3A enzyme activity using the measurement of fluorescent polarization changes. The 50% inhibition concentration (IC50) nM was calculated and reported.

In data set [2] the test system is NT-proBNP. Briefly: NT-proBNP circulating biomarker reduction. It is filed as in vivo, canine. The note with it: over a 12 hour period. The protocol: NT-proBNP is a standard circulating biomarker of canine MMVD secreted by ventricular cardiomyocytes in response to stretching from volume or pressure overload. It is a well-defined diagnostic and prognostic biological indicator of myocardial wall stress and can be used as a biomarker for acute changes in left ventricular loading conditions. […] In one instance, Example #26 had reduced NT-proBNP levels by 49% and 62% at doses of 0.03 and 0.1 mg/kg, respectively, over a 12 hour period.

Data set [3] can be described thus: Dog plasma half-life after oral dose. It counts as in vivo. To be noted: Beagle dogs, oral dose 0.1 mg/kg, plasma over 72 hours, read-out: t½ (hrs), Dog Plasma Compound Half-life (converted). The protocol:
Lastly, plasma half-life was assessed for a number of compounds in dogs. Beagle dogs were given an oral dose (0.1 mg/kg) of the respective compound accounting for a dose amount of about 1 mg/dog. Pimopendan was administered at a 0.3 mg/kg dose.

Data set [4] has as its system adult human primary ventricular cardiomyocytes. Briefly: contractility amplitude (CA) assay. It is filed as cell-based. To be noted: for Contractility amplitude: vehicle 100, 1 Hz. The protocol:
Further, Example #57 (30 μM) was tested in a contractility amplitude (CA) assay using adult human primary ventricular cardiomyocytes dissociated from human donor hearts to determine the potential of the compound to exert its positive inotropic effect by a single (Ca^2+ sensitization or inhibition of PDE3) or dual (Ca^2+ sensitization and inhibition of PDE3) mechanism of action. Cardiomyocytes were incubated at 35° C. under continuous perfusion (2 mL/minute) in a buffer (vehicle) solution (HEPES (10 mM), NaCl (145 mM), KCl (4 mM), MgCl2 1 mM), CaCl2) (1.8 mM) and dextrose (11.1 mM)) plus 0.1% DMSO). Cells were equilibrated for a minimum of 5 minutes and stimulated with 1.0 Hz with a 1.5× stimulation intensity. A 100 μM IBMX (3-isobutyl-1-methylxanthine) non-selective inhibitor of PDE was used. Treatment time and stimulation was 300 seconds at 1.0 Hz. Data was collected using MyoBLAZER™ (v 2.9.2) software. Equilibrated cells (n=12) were stimulated with supra-threshold voltage at 1 Hz pacing frequency (bipolar pulse of 3 ms duration). Starting at 1 V, the amplitude of the stimulating pulse was increased until the cardiomyocytes started generating contraction-relaxation cycles. Contractility amplitude was calculated from the average of the last 20 contractility transients. Contractility amplitude for vehicle, IBMX and IBMX with Example #57 was 100, 136.8 and 267.6, respectively. […] IBMX increased CA by inhibiting PDE, however, there was an even larger increase in CA in the presence of Ex #57. Additionally, the CA assay was used to assess the potential of Ex #57 to exert a shift in the calcium concentration EC50. […] From this second CA study, contractility of the myocytes was dose dependent on calcium concentration. Contractility at 100 μM, 1000 μM and 10,000 μM CaCl2 was 3.11, 56.31 and 228.61, respectively. With the addition of 30 μM Ex #57, respective contractility values increased to 40.17, 182.67 and 284.27.

Sequence of dog PDE3A recombinant enzyme (A0A8I3NYE0 1-1135): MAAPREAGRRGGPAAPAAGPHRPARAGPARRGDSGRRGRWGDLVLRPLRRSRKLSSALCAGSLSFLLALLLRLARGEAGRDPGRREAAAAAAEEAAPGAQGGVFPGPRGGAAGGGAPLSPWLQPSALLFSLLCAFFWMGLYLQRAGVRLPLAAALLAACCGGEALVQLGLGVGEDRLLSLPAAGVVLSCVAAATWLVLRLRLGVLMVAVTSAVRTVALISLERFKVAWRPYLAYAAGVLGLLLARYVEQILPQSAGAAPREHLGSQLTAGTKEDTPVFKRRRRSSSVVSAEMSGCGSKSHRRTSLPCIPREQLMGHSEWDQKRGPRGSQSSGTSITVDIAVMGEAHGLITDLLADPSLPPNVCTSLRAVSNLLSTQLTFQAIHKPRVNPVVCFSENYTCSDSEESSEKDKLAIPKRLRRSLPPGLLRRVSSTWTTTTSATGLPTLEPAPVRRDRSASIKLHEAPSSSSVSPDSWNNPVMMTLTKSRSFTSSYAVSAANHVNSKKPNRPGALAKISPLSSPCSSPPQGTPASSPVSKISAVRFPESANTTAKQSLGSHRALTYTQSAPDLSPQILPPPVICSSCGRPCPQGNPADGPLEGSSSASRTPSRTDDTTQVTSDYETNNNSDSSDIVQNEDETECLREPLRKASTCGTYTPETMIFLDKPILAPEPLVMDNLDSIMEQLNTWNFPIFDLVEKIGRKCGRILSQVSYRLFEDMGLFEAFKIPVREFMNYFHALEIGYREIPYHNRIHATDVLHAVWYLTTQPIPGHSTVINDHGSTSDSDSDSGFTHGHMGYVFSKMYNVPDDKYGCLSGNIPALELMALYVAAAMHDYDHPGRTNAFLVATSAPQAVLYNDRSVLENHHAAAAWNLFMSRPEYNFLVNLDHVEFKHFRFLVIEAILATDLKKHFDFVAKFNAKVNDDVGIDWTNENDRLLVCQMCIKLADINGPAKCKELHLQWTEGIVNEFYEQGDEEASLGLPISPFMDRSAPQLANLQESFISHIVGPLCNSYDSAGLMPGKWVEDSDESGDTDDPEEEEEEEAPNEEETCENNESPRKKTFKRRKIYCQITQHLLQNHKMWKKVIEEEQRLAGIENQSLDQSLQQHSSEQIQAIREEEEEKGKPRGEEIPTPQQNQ

As for `CC1CC(=O)NN=C1c1cc(F)c2c(c1)C(C)(C)C(=O)N2` (stereo not shown) [Example #26, 7-fluoro-3,3-dimethyl-5-(4-methyl-6-oxo-1,4,5,6-tetrahydropyridazin-3-yl)indolin-2-one], the IC50 in data set [1] stood at 7.4 nM. The “reduced NT-proBNP levels” value was determined as 49% in data set [2] (0.03 mg/kg) and 62% in data set [2] (0.1 mg/kg).
For `CC1SC(=O)NN=C1c1cc(Cl)c2[nH]c(=O)sc2c1` (stereo not shown) [Example #56, 4-chloro-6-(6-methyl-2-oxo-3,6-dihydro-2H-1,3,4-thiadiazin-5-yl)benzo[d]thiazol-2 (3H)-one], the IC50 in data set [1] worked out at 3.6 nM. The half-life in data set [3] is 15 h.
Take `CC1SC(=O)NN=C1c1cc(F)c2c(c1)CC(=O)N2` (stereo not shown) [Example #57, 5-(7-fluoro-2-oxoindolin-5-yl)-6-methyl-3,6-dihydro-2H-1,3,4-thiadiazin-2-one]: the 50% inhibitory concentration (IC50) in data set [1] is 14.2 nM. Besides, the Contractility in data set [4] (100 μM CaCl2 with 30 μM Ex #57 (3.11 without)) is given as 40.17; in data set [4] (1000 μM CaCl2 with 30 μM Ex #57 (56.31 without)), 182.67; in data set [4] (10,000 μM CaCl2 with 30 μM Ex #57 (228.61 without)), 284.27. This compound displayed a Contractility amplitude in data set [4] (100 μM IBMX with 30 μM Example #57) of 267.6. In addition, the EC50 in data set [4] (Homo sapiens, Cardiomyocyte, without Ex #57 1286 μM, read-out: calcium concentration EC50 with Ex #57) is 821000 nM. Further, the half-life in data set [3] is 10 h.
Turning to `CC1SC(=O)NN=C1c1cc(Cl)c2c(c1)C1(CC1)C(=O)N2` (stereo not shown) [Example #58, 5-(7′-chloro-2′-oxospiro[cyclopropane-1,3′-indolin]-5′-yl)-6-methyl-3,6-dihydro-2H-1,3,4-thiadiazin-2-one], the IC50 in data set [1] was determined as 8.4 nM. Besides, in data set [3], the half-life is 7 h.
Taken in the same sequence, the figures for `CC1(C)C(=O)Nc2c(F)cc(C3=NNC(=O)SC3)cc21` [Example #59, 5-(7-fluoro-3,3-dimethyl-2-oxoindolin-5-yl)-3,6-dihydro-2H-1,3,4-thiadiazin-2-one] were 22.2 nM and 5.2 h.
Regarding `CC1(C)C(=O)Nc2c(Br)cc(C3=NNC(=O)SC3)cc21` [Example #66, 5-(7-bromo-3,3-dimethyl-2-oxoindolin-5-yl)-3,6-dihydro-2H-1,3,4-thiadiazin-2-one], the 50% inhibitory concentration (IC50) in data set [1] came out at 24.4 nM. In addition, in data set [3], the half-life was 10.2 h.
For the compound `CC1SC(=O)NN=C1c1cc(-c2cscn2)c2c(c1)C(C)(C)C(=O)N2` (stereo not shown) [Example #68, 5-(3,3-dimethyl-2-oxo-7-(thiazol-4-yl)indolin-5-yl)-6-methyl-3,6-dihydro-2H-1,3,4-thiadiazin-2-one], the IC50 in data set [1] worked out at 118 nM. Further, the half-life in data set [3] is 12 h.
Take `CC1SC(=O)NN=C1c1cc2c(c(-c3ccc(Cl)cc3)c1)NC(=O)C2` (stereo not shown) [Example #71, 5-(7-(4-chlorophenyl)-2-oxoindolin-5-yl)-6-methyl-3,6-dihydro-2H-1,3,4-thiadiazin-2-one]: in data set [1], the IC50 came to 90.4 nM. Further, in data set [3], the half-life was 5.4 h.
On to `O=C1CCCc2cc(C3=NNC(=O)SC3)ccc2N1` [Example #72, 5-(2-oxo-2,3,4,5-tetrahydro-1H-benzo[b]azepin-7-yl)-3,6-dihydro-2H-1,3,4-thiadiazin-2-one], for which, in data set [1], the IC50 is 28.2 nM. Moreover, the half-life in data set [3] was 3.9 h.
For `Cc1cc(C2=NNC(=O)SC2C)cc2c1NC(=O)CCC2` (stereo not shown) [Example #73, 6-methyl-5-(9-methyl-2-oxo-2,3,4,5-tetrahydro-1H-benzo[b]azepin-7-yl)-3,6-dihydro-2H-1,3,4-thiadiazin-2-one], the IC50 in data set [1] is 4.9 nM. For the same compound, the half-life in data set [3] is 7.5 h.
Taken in the same sequence, the figures for `CC1SC(=O)NN=C1c1cc(F)c2c(c1)C(C)(C)C(=O)N2` (stereo not shown) [Example #74, 5-(7-fluoro-3,3-dimethyl-2-oxoindolin-5-yl)-6-methyl-3,6-dihydro-2H-1,3,4-thiadiazin-2-one] were 13.3 nM and 55 h.
`CC1SC(=O)NN=C1c1cc(Cl)c2c(c1)C(C)(C)C(=O)N2` (stereo not shown) [Example #75, 5-(7-chloro-3,3-dimethyl-2-oxoindolin-5-yl)-6-methyl-3,6-dihydro-2H-1,3,4-thiadiazin-2-one]: in data set [1], the IC50 came to 9.7 nM. Moreover, the half-life in data set [3] was 50 h.
Taken in the same sequence, the figures for `CC1SC(=O)NN=C1c1cc(Br)c2c(c1)C(C)(C)C(=O)N2` (stereo not shown) [Example #76, 5-(7-bromo-3,3-dimethyl-2-oxoindolin-5-yl)-6-methyl-3,6-dihydro-2H-1,3,4-thiadiazin-2-one] were 15.2 nM and 40 h.
For the compound `CC1(C)C(=O)Nc2c(Cl)cc(-c3cnc4c(c3)CC(=O)N4)cc21` [Example #85, 5-(7-chloro-3,3-dimethyl-2-oxoindolin-5-yl)-1,3-dihydro-2H-pyrrolo[2,3-b]pyridin-2-one], the IC50 in data set [1] was 49.7 nM. The half-life in data set [3] was 9 h.
On to `CC1(C)C(=O)Nc2c(Cl)cc(-c3cncnc3)cc21` [Example #86, 7-chloro-3,3-dimethyl-5-(pyrimidin-5-yl)indolin-2-one], for which, in data set [1], the IC50 was 115 nM. In addition, the half-life in data set [3] is 96 h.
`CC(C)Cn1c(=O)n(C)c(=O)c2[nH]cnc21` [IBMX, 3-isobutyl-1-methylxanthine, reference compound] came in with a Contractility amplitude in data set [4] (100 μM IBMX alone) of 136.8.
